Reference: US12685735B2 (Foghorn Therapeutics Inc., priority 2020, dated 2026)

Legend:
BRM = BRM (Homo sapiens, UniProt P51531); test: ATPase catalytic activity assay of BRM (ADP-Glo); assay type: biochemical; settings: for IC50: read-out: BRM IC50 (μM)*
Method in brief: (§1)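 Measurement is luminescence, reflecting ADP produced by ATPase turnover. The two-step ADP-Glo detection consists of ATP depletion for 40 min and ADP-to-ATP conversion with luciferase for 60 min, both at room temperature.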

BRG-1 = BRG-1 (Homo sapiens, UniProt P51532); test: ATPase catalytic activity assay of BRG-1 (ADP-Glo); assay type: biochemical; settings: ATPase catalytic activity, ADP-Glo; for IC50: read-out: BRG1 IC50 (μM)*; for Emax: read-out: BRG1 Max % Inhibition
Method in brief: as §1

BRM, sequence (P51531 whole entry): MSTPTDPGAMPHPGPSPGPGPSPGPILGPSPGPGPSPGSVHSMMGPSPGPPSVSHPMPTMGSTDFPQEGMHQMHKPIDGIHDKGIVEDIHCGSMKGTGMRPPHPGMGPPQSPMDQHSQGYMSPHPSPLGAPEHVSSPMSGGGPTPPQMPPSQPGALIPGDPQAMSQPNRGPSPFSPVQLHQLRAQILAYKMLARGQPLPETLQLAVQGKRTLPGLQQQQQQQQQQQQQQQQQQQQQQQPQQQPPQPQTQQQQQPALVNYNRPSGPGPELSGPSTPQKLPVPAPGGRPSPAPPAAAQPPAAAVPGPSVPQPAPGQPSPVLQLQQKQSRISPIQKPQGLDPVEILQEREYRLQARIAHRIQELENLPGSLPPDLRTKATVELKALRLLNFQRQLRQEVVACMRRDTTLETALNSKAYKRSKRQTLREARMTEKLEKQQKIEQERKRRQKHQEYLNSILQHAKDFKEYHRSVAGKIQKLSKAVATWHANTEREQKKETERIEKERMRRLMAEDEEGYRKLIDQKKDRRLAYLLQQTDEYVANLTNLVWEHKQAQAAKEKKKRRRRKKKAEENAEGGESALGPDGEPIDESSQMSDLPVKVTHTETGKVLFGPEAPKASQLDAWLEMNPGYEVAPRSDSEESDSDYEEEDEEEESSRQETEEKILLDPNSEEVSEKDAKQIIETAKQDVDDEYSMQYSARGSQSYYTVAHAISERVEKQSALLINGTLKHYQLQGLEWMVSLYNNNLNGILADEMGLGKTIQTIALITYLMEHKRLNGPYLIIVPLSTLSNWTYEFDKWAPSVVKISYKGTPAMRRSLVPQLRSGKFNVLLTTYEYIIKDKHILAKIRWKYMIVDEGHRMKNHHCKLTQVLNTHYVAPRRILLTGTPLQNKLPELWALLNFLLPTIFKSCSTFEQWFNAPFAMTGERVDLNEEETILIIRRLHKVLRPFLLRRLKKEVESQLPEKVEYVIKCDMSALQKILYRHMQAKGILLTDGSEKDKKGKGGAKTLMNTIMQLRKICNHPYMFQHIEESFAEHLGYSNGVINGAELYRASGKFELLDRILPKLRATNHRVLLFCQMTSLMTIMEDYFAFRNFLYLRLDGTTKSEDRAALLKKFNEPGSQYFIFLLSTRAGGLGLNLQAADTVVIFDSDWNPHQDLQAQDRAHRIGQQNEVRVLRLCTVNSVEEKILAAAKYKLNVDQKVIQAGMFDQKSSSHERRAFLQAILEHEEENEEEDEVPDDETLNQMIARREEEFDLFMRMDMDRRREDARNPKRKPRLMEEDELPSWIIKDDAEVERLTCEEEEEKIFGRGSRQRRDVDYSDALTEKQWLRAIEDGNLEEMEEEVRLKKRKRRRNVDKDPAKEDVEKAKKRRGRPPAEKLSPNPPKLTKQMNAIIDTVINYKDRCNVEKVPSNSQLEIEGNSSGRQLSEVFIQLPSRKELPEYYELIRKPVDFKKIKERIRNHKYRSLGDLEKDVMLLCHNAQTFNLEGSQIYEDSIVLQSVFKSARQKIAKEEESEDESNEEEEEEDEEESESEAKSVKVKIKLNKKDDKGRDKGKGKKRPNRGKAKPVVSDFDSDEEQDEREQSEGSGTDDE
BRG-1, sequence (P51532 whole entry): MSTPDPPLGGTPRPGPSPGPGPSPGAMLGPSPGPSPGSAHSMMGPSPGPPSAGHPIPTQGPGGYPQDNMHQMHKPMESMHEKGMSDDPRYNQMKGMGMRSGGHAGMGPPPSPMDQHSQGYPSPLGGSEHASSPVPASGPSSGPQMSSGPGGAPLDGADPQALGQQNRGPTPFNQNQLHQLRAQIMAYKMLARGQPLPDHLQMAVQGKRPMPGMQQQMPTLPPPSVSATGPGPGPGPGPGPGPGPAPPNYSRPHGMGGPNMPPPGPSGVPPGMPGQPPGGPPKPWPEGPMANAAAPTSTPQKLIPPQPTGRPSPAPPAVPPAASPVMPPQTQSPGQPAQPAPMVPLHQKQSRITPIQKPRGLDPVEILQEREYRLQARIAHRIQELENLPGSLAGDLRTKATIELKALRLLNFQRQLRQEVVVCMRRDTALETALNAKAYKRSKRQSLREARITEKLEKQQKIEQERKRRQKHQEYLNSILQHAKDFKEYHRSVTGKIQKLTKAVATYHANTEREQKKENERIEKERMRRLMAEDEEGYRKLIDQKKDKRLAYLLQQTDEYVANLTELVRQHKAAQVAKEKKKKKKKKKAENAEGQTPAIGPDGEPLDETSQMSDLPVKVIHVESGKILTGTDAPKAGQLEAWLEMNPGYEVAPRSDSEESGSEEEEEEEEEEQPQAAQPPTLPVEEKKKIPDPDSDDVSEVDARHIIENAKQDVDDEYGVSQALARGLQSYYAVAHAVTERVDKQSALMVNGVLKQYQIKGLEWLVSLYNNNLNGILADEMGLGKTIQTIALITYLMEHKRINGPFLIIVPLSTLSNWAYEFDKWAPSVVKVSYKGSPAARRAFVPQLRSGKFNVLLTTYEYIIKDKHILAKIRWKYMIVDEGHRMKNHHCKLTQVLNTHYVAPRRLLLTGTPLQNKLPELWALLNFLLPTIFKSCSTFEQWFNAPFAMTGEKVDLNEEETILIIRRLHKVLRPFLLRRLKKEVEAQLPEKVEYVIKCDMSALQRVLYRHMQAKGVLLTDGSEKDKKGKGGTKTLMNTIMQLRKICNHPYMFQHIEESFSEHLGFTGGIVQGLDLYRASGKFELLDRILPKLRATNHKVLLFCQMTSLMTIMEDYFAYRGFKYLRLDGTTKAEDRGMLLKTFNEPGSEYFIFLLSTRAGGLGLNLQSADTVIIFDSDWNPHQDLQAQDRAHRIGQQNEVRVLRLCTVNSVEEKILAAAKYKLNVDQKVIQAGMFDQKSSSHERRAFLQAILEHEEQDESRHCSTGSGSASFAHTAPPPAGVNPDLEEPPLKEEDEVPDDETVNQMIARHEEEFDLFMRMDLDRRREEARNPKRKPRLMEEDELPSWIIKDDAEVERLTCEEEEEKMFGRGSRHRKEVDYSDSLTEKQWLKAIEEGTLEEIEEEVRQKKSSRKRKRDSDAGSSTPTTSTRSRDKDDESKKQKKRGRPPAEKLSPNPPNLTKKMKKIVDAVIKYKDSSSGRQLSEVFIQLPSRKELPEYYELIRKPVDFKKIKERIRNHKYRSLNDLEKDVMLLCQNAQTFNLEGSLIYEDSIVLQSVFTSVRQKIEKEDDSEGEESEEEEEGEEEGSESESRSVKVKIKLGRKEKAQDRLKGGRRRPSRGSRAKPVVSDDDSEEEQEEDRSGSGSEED

CC(C)(CN)c1cccc(C(=O)NCC(=O)Nc2nc(-c3cccc(-c4cccc(Cl)c4)c3)cs2)c1 [Compound 54, 3-(1-amino-2-methylpropan-2-yl)-N-(2-((4-(3′-chloro-[1,1′-biphenyl]-3-yl)thiazol-2-yl)amino)-2-oxoethyl)benzamide]
BRM Max % Inhibition (BRM): >80% | IC50 (BRM): 1 to 5 µM | IC50 (BRG-1): 1 to 5 µM | Emax (BRG-1): > 50%

CCC(C)(O)c1cccc(C(=O)NCC(=O)Nc2nc(-c3cccc(-c4ccncc4)c3)cs2)c1 (single isomer, unassigned) [Compound 80]
BRM Max % Inhibition (BRM): >90% | IC50 (BRM): 1 to 5 µM | IC50 (BRG-1): 0.1 to 1 µM | Emax (BRG-1): > 80%

C[C@@]1(C#N)COCc2ccc(C(=O)NCC(=O)Nc3nc(-c4cccc(N5CC(F)(F)C5)c4)cs3)cc21 [Compound 342, (R)-4-cyano-N-(2-((4-(3-(3,3-difluoroazetidin-1-yl)phenyl)thiazol-2-yl)amino)-2-oxoethyl)-4-methylisochromane-6-carboxamide]
BRM Max % Inhibition (BRM): >95% | IC50 (BRM): < 0.1 µM | IC50 (BRG-1): 0.1 to 1 µM | Emax (BRG-1): > 95%

C[C@@]1(C#N)COCc2ccc(C(=O)NCC(=O)Nc3nc(-c4cccc(C(F)F)c4)cs3)cc21 [Compound 398, (R)-4-cyano-N-(2-((4-(3-(difluoromethyl)phenyl)thiazol-2-yl)amino)-2-oxoethyl)-4-methylisochromane-6-carboxamide]
BRM Max % Inhibition (BRM): >95% | IC50 (BRM): < 0.1 µM | IC50 (BRG-1): 0.1 to 1 µM | Emax (BRG-1): > 95%

COc1cccc(-c2csc(NC(=O)CNC(=O)c3cc(F)c4c(c3)[C@@](C)(C#N)COC4)n2)c1 [Compound 269, (S)-4-cyano-8-fluoro-N-(2-((4-(3-methoxyphenyl)thiazol-2-yl)amino)-2-oxoethyl)-4-methylisochromane-6-carboxamide]
BRM Max % Inhibition (BRM): >90% | IC50 (BRM): 0.1 to 1 µM | IC50 (BRG-1): > 5 µM | Emax (BRG-1): > 90%

C[C@@H]1CN(c2cccc(-c3csc(NC(=O)CNC(=O)c4ccc5c(c4)[C@]4(COC5)CC4(F)F)n3)n2)C[C@H](C)O1 [Compound 411, (S)-N-(2-((4-(6-((cis)-2,6-dimethylmorpholino)pyridin-2-yl)thiazol-2-yl)amino)-2-oxoethyl)-2,2-difluorospiro[cyclopropane-1,4′-isochromane]-6′-carboxamide]
BRM Max % Inhibition (BRM): >90% | IC50 (BRM): 0.1 to 1 µM | IC50 (BRG-1): > 5 µM | Emax (BRG-1): > 90%

COC[C@H](NC(=O)c1cccc(C(C)(C)CN)c1)C(=O)Nc1nc(-c2cccc(-c3ccnc(C)c3)c2)cs1 [Compound 68, (S)-3-(1-amino-2-methylpropan-2-yl)-N-(3-methoxy-1-((4-(3-(2-methylpyridin-4-yl)phenyl)thiazol-2-yl)amino)-1-oxopropan-2-yl)benzamide]
BRM Max % Inhibition (BRM): >95% | IC50 (BRM): 0.1 to 1 µM | IC50 (BRG-1): 0.1 to 1 µM | Emax (BRG-1): > 90%

C[C@@H]1CN(c2cccc(-c3csc(NC(=O)CNC(=O)c4cccc(C(C)(C)C)c4)n3)c2)C[C@H](C)O1 [Compound 217, 3-tert-butyl-N-[2-[[4-[3-[(cis)-2,6-dimethylmorpholin-4-yl]phenyl]thiazol-2-yl]amino]-2-oxo-ethyl]benzamide]
BRM Max % Inhibition (BRM): >95% | IC50 (BRM): < 0.1 µM | IC50 (BRG-1): 0.1 to 1 µM | Emax (BRG-1): > 90%

C[C@@H](CO)S(=O)(=O)c1cccc(C(=O)NCC(=O)Nc2nc(-c3cccc(-c4ccncc4)c3)cs2)c1 [Compound 115, (S)-3-((1-hydroxypropan-2-yl)sulfonyl)-N-(2-oxo-2-((4-(3-(pyridin-4-yl)phenyl)thiazol-2-yl)amino)ethyl)benzamide]
BRM Max % Inhibition (BRM): >95% | IC50 (BRM): < 0.1 µM | IC50 (BRG-1): < 0.1 µM | Emax (BRG-1): > 95%

C[C@]1(CN)CCc2c(C(=O)NCC(=O)Nc3nc(-c4cccc(-c5ccncc5)c4)cs3)cccc21 [Compound 243, (1S)-1-(aminomethyl)-1-methyl-N-[2-oxo-2-[[4-[3-(4-pyridyl)phenyl]thiazol-2-yl]amino]ethyl]indane-4-carboxamide]
BRM Max % Inhibition (BRM): >80% | IC50 (BRM): 0.1 to 1 µM | IC50 (BRG-1): 1 to 5 µM | Emax (BRG-1): > 50%
